This note sets out measurements from PMC3764824, “Base-modified Donor Analogues Reveal Novel Dynamic Features of a Glycosyltransferase” (The Journal of Biological Chemistry, 2013).

The target in series [1] is T1, AAGlyB (GTA-L266G/G268A) (Homo sapiens, UniProt P16442, L266G/G268A).
T1 construct: gene ABO; soluble catalytic domain, N-terminally truncated (forward primer MIN2 encodes MVSLPRMVYPQP; C-terminus ...NP at residue 354), made in E. coli BL21-gold from pCWdeltalac; SP-Sepharose and UDP-hexanolamine-Sepharose; residues 58-354 stated ordered in UDP-HAA crystal
T1 sequence (P16442 64-354 L266G/G268A): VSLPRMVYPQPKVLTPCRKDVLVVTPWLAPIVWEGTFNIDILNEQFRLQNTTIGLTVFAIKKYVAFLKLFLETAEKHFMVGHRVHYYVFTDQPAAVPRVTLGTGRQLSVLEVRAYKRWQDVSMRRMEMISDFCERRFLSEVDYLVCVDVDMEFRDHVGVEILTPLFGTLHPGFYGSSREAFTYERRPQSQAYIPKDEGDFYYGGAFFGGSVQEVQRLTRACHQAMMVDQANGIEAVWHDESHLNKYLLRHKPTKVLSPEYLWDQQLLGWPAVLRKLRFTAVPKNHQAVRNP
Kind of series: X-ray crystallography ([…] Å). The series is classed as binding. The note with it: ternary complex with HAA; UDP carried over from purification.

The target of series [2] is T2, AAGlyB (GTA-L266G/G268A) (Homo sapiens, UniProt P16442, G268A/L266G).
T2 construct: gene ABO; soluble catalytic domain, N-terminally truncated (forward primer MIN2 encodes MVSLPRMVYPQP; C-terminus ...NP at residue 354), made in E. coli BL21-gold from pCWdeltalac; SP-Sepharose and UDP-hexanolamine-Sepharose; residues 58-354 stated ordered in UDP-HAA crystal
T2 sequence (P16442 64-354 L266G/G268A): T1 sequence (P16442 64-354 L266G/G268A)
Kind of series: radiochemical Sep-Pak assay, Dixon plot. The note with it: read-out: 2. It counts as biochemical. The source says:
radiochemical Sep-Pak assay, Dixon plot on AAGlyB (GTA-L266G/G268A)

Series [3] addresses T1, AAGlyB (GTA-L266G/G268A). The series is described as follows: capillary electrophoresis with LIF detection. The series is classed as biochemical. The note with it: labelled compound; co-substrate compound 2 (33.3 μM), CE assay, 20 mM MnCl2, MOPS pH 7.0, 37 °C. The source says: (§1) capillary electrophoresis with LIF detection on AAGlyB (GTA-L266G/G268A)
Substrate in series [4]: O=c1[nH]c(=O)n([C@@H]2O[C@H](COP(=O)(O)OP(=O)(O)O[C@H]3O[C@H](CO)[C@H](O)[C@H](O)[C@H]3O)[C@@H](O)[C@H]2O)cc1-c1ccccc1
The series is described as follows: capillary electrophoresis with LIF detection. It counts as biochemical, Homo sapiens. To be noted: 50 μM tetramethylrhodamine-labeled HAA, 20 mM MnCl2, 50 mM MOPS pH 7.0, 37 °C.
Source text: as §1

The term Km denotes the substrate concentration at which the rate is half of its maximum. A word on the kcat: it is the number of substrate molecules converted per active site and unit of time at saturation.

With `O=c1ccn([C@@H]2O[C@H](COP(=O)(O)OP(=O)(O)O)[C@@H](O)[C@H]2O)c(=O)[nH]1` [UDP], the “X-ray crystallography (1.8 Å)” value on AAGlyB (GTA-L266G/G268A) [1] was “The AAGlyB-UDP-HAA structure shows very well defined electron density”.
For the molecule `O=c1[nH]c(=O)n([C@@H]2O[C@H](COP(=O)(O)OP(=O)(O)O[C@H]3O[C@H](CO)[C@H](O)[C@H](O)[C@H]3O)[C@@H](O)[C@H]2O)cc1-c1ccccc1` [compound 2, UDP-Gal derivative 2], the Ki at AAGlyB (GTA-L266G/G268A) [2] was found to be 3 µM.
For the molecule “α-Fucp-(1→2)-β-Galp-O-(CH2)8CONH(CH2)2NH-CO-tetramethylrhodamine”, on AAGlyB (GTA-L266G/G268A) [3], the Km was 56 ± 3 µM.

B1: AAGlyB (GTA-L266G/G268A) (Homo sapiens; G268A/L266G) (protein)
chain: T1 sequence (P16442 64-354 L266G/G268A)
notes: soluble catalytic domain, N-terminally truncated (forward primer MIN2 encodes …; C-terminus ...NP at residue 354), made in E. coli BL21-gold from pCWdeltalac; SP-Sepharose and UDP-hexanolamine-Sepharose; residues 58-354 stated ordered in UDP-HAA crystal
As for B1, in series [4], the Michaelis-Menten constant (Km) was determined as 6.5 ± 0.5 µM and the kcat amounted to 0.006 ± 0.0008 s⁻¹.
